{"source": "patent US20240327471A1", "about": "“IL-10 INDUCING POLYPEPTIDES AND USES THEREOF” (ENTEROME S.A., priority 2021, published 2024)", "key": {"[1]": {"test_system": "monocyte-derived dendritic cells (MoDCs)", "experiment": "NAT_29 dose response, IL-10 secretion from MoDCs co-stimulated with LPS (AlphaLISA)", "assay_type": "cell-based, human", "settings": "0.1 to 1000 nM; LPS 100 ng/ml; 24 hours", "description": "To investigate the IL-10 inducing/enhancing capacity of NAT_29, in vitro IL-10 secretion of human immune cells in the presence of different doses of NAT_29 was tested. Briefly, human CD14+ monocytes were isolated from peripheral blood mononuclear cells (PBMCs) from healthy human volunteers by density gradient centrifugation using SepMate™-50 IVD tubes (Stemcell, Ref. 85460). The obtained PBMCs were washed thrice with Dulbeccos's phosphate buffered saline (PBS, Sigma, D88537) and lysed 10 min at room temperature in Red blood Lysis buffer 1X (Miltenyi Biotec, 130-094-183). Cells were washed with MACS buffer (Miltenyi Biotec, 130-091-221) and counted using the trypan blue dye exclusion method. CD14+monocytes were sorted using anti-human CD14 Microbeads (Miltenyi Biotec, 130-050-201) as per manufacturer's protocol. Positive CD14+ fractions were collected and seeded at 2×10^4 cells per well in 384 well plates in IMDM medium (Gibco, 12440-046) supplemented with 10% FBS and 1X antibiotic solution.\nMonocyte-derived dendritic cells (MoDCs) were derived from the differentiation of CD14+ cells, obtained after the selective sorting. […]\n[…] IL-10 secretion were measured at 24 hours by AlphaLISA® on cell supernatants according to the supplier's protocol and read on an Envision plate reader (Perkin Elmer)."}, "human ileal explants": {"test_system": "human ileal explants", "experiment": "Ex vivo human ileal explants in Ussing chambers inflamed with E. coli LF82 (TER, histology, IL-8 ELISA)", "assay_type": "cell-based", "description": "Next, the role of NAT_29 was evaluated in the context of inflammatory diseases using ex vivo experiments performed on human ileal resections. To this end, explants were mounted on Ussing Chambers in order to separate the apical side from the basolateral side as naturally occurs in the gut. Tissues were pre-incubated 1 h with NAT_29 (SEQ ID NO: 1) before inflammation was triggered with live Escherichia coli LF82 during 4 hours.\nPreparation of Bacteria: The day before the assay, LB broth (Sigma Aldrich, L3522) was inoculated, using sterile loops, with bacteria from a glycerol stock (E. coli LF82-gfp) maintained at −80° C. Tubes were incubated overnight at 37° C. without shaking. The next day, optical density of the bacterial suspensions was read at 600 nm using a spectrophotometer (Amersham Ultrospec 10) allowing estimation of the bacterial cell density and bacteria were added to human explants as explained below.\nHuman tissue samples were obtained from patients undergoing surgery with the patients' agreement. Samples were taken from macroscopically unaffected area as identified by the surgeon. […]\nThree parameters were assessed to evaluate the anti-inflammatory potential of NAT_29 in the ex vivo model: • 1) Transepithelial Electrical Resistance (TER) which is a measure of integrity/tightness of the human explants; • 2) histology; • 3) IL-8 secretion (quantified by Elisa).\nTER assays are well-known methods for measuring effects on the structural and functional integrity of an epithelial cell layer, which are described, for example, in: Srinivasan et al., 2015, J Lab Autom, 20:107-126. Accordingly, the integrity/tightness of the human explants during the incubation was evaluated through Transepithelial Electrical Resistance (TER) measurement using Millicell-ERS (Electrical Resistance System) Voltohmmeter (Millipore, MERS00002). […]\nIL-8 levels were measured by ELISA (BD Biosciences, 555244). […] Absorbances were measured using a microplate reader (BioTek, Synergy MX, model SMATLD) at 490 nm. […]"}}}
{"sequence": "KKGSRSCFFIYLDRGTKKGSRSCFFYLP (NAT_29) [28-amino-acid fragment of microbiota protein ID3166]", "values": [{"measurement": "IL-10 secretion from MoDCs", "setting": "[1]", "result": "highest IL-10 levels were measured in both cell types at the highest concentration of NAT_29 tested"}, {"measurement": "IL-8 secretion (ELISA, basolateral side)", "setting": "human ileal explants; 1000 or 10 nM, LF82 4 h (LF82 alone 4-fold increase)", "result": "completely abolished IL-8 secretion"}, {"measurement": "TER reduction", "setting": "human ileal explants; pre-incubation 1 h at 1000 nM or 10 nM, then E. coli LF82 4 hours, LF82 alone 52%, control without LF82 24%", "result": 32, "unit": "%"}, {"measurement": "histology (H&E staining) of explants", "setting": "human ileal explants; pre-incubation with 1000 nM, LF82 4 h", "result": "protective effect against LF82-induced degradation"}]}
